Test results from PubChem BioAssay AID1259407 (Chemical Carcinogenesis Research Information System (CCRIS), 2018).
Activity calls are given as the source filed them. How the calls were made is not given here.

Test system: CCRIS mutagenicity, Ames/micronucleus/aberration tests
Assay: CCRIS mutagenicity studies
[1] = Test System: AMES SALMONELLA TYPHIMURIUM, Strain/Indicator: TA98, Metabolic Activation: NONE, Method: STANDARD PLATE
[2] = Test System: AMES SALMONELLA TYPHIMURIUM, Strain/Indicator: TA98, Metabolic Activation: RAT, LIVER, S-9, AROCLOR 1254, Method: STANDARD PLATE
[3] = Test System: AMES SALMONELLA TYPHIMURIUM, Strain/Indicator: TA100, Metabolic Activation: NONE, Method: STANDARD PLATE
[4] = Test System: AMES SALMONELLA TYPHIMURIUM, Strain/Indicator: TA1535, Metabolic Activation: NONE, Method: STANDARD PLATE
[5] = Test System: AMES SALMONELLA TYPHIMURIUM, Strain/Indicator: TA1535, Metabolic Activation: RAT, LIVER, S-9, AROCLOR 1254, Method: STANDARD PLATE
[6] = Test System: AMES SALMONELLA TYPHIMURIUM, Strain/Indicator: TA1537, Metabolic Activation: NONE, Method: STANDARD PLATE
[7] = Test System: AMES SALMONELLA TYPHIMURIUM, Strain/Indicator: TA1538, Metabolic Activation: NONE, Method: STANDARD PLATE
[8] = Test System: AMES SALMONELLA TYPHIMURIUM, Strain/Indicator: TA100, Metabolic Activation: NONE, Method: PREINCUBATION

CC(=O)[CH-]C(=O)c1ccccc1.CC(=O)[CH-]C(=O)c1ccccc1.CC[O-].CC[O-].[Ti+4]
mutagenic call [1]: inactive; negative | mutagenic call [2]: inactive; negative | mutagenic call [3]: inactive; negative | mutagenic call (Test System: AMES SALMONELLA TYPHIMURIUM, Strain/Indicator: TA100, Metabolic Activation: RAT, LIVER, S-9, AROCLOR 1254, Method: PREINCUBATION): inactive; negative | mutagenic call (Test System: AMES SALMONELLA TYPHIMURIUM, Strain/Indicator: TA100, Metabolic Activation: RAT, LIVER, S-9, AROCLOR 1254, Method: STANDARD PLATE): inactive; negative | mutagenic call [4]: inactive; negative | mutagenic call (Test System: AMES SALMONELLA TYPHIMURIUM, Strain/Indicator: TA1535, Metabolic Activation: RAT, LIVER, S-9, AROCLOR 1254, Method: PREINCUBATION): inactive; negative | mutagenic call [5]: inactive; negative | mutagenic call [6]: inactive; negative | mutagenic call (Test System: AMES SALMONELLA TYPHIMURIUM, Strain/Indicator: TA1537, Metabolic Activation: RAT, LIVER, S-9, AROCLOR 1254, Method: STANDARD PLATE): inactive; negative | mutagenic call [7]: inactive; negative | mutagenic call (Test System: AMES SALMONELLA TYPHIMURIUM, Strain/Indicator: TA1538, Metabolic Activation: RAT, LIVER, S-9, AROCLOR 1254, Method: STANDARD PLATE): inactive; negative

Cc1ccc(S(=O)(=O)OC(C)C)cc1
mutagenic call (End Point: IN VITRO MICRONUCLEUS, Test System: MOUSE LYMPHOMA L5178Y CELLS, Metabolic Activation: NONE): active; positive | mutagenic call (End Point: IN VITRO MICRONUCLEUS, Test System: MOUSE LYMPHOMA L5178Y CELLS, Metabolic Activation: RAT, LIVER, S-9): active; positive | mutagenic call (End Point: In vitro micronucleus, Test System: Chinese Hamster Ovary (CHO-WBL) cells, Metabolic Activation: None): active; positive (p<0.05) | mutagenic call [3]: active; positive | mutagenic call (Test System: AMES SALMONELLA TYPHIMURIUM, Strain/Indicator: TA100, Metabolic Activation: RAT, LIVER, S-9, Method: STANDARD PLATE): active; positive

N#CCC#N
mutagenic call (Test System: AMES SALMONELLA TYPHIMURIUM, Strain/Indicator: TA97, Metabolic Activation: HAMSTER, LIVER, S-9, AROCLOR 1254 (10%), Method: PREINCUBATION): inactive; negative | mutagenic call (Test System: AMES SALMONELLA TYPHIMURIUM, Strain/Indicator: TA97, Metabolic Activation: HAMSTER, LIVER, S-9, AROCLOR 1254 (30%), Method: PREINCUBATION): inactive; negative | mutagenic call (Test System: AMES SALMONELLA TYPHIMURIUM, Strain/Indicator: TA97, Metabolic Activation: NONE, Method: PREINCUBATION): inactive; negative | mutagenic call (Test System: AMES SALMONELLA TYPHIMURIUM, Strain/Indicator: TA97, Metabolic Activation: RAT, LIVER, S-9, AROCLOR 1254 (10%), Method: PREINCUBATION): inactive; negative | mutagenic call (Test System: AMES SALMONELLA TYPHIMURIUM, Strain/Indicator: TA97, Metabolic Activation: RAT, LIVER, S-9, AROCLOR 1254 (30%), Method: PREINCUBATION): inactive; negative | mutagenic call (Test System: AMES SALMONELLA TYPHIMURIUM, Strain/Indicator: TA98, Metabolic Activation: HAMSTER, LIVER, S-9, AROCLOR 1254 (10%), Method: PREINCUBATION): inactive; negative | mutagenic call (Test System: AMES SALMONELLA TYPHIMURIUM, Strain/Indicator: TA98, Metabolic Activation: HAMSTER, LIVER, S-9, AROCLOR 1254 (30%), Method: PREINCUBATION): inactive; negative | mutagenic call (Test System: AMES SALMONELLA TYPHIMURIUM, Strain/Indicator: TA98, Metabolic Activation: NONE, Method: PREINCUBATION): inactive; negative | mutagenic call (Test System: AMES SALMONELLA TYPHIMURIUM, Strain/Indicator: TA98, Metabolic Activation: RAT, LIVER, S-9, AROCLOR 1254 (10%), Method: PREINCUBATION): inactive; negative | mutagenic call (Test System: AMES SALMONELLA TYPHIMURIUM, Strain/Indicator: TA98, Metabolic Activation: RAT, LIVER, S-9, AROCLOR 1254 (30%), Method: PREINCUBATION): inactive; negative | mutagenic call (Test System: AMES SALMONELLA TYPHIMURIUM, Strain/Indicator: TA100, Metabolic Activation: HAMSTER, LIVER, S-9, AROCLOR 1254 (10%), Method: PREINCUBATION): inactive; negative | mutagenic call (Test System: AMES SALMONELLA TYPHIMURIUM, Strain/Indicator: TA100, Metabolic Activation: HAMSTER, LIVER, S-9, AROCLOR 1254 (30%), Method: PREINCUBATION): inactive; negative | mutagenic call [8]: inactive; negative | mutagenic call (Test System: AMES SALMONELLA TYPHIMURIUM, Strain/Indicator: TA100, Metabolic Activation: RAT, LIVER, S-9, AROCLOR 1254 (10 OR 30%), Method: PREINCUBATION): inactive; negative | mutagenic call (Test System: AMES SALMONELLA TYPHIMURIUM, Strain/Indicator: TA1535, Metabolic Activation: HAMSTER, LIVER, S-9, AROCLOR 1254 (10%), Method: PREINCUBATION): inactive; negative | mutagenic call (Test System: AMES SALMONELLA TYPHIMURIUM, Strain/Indicator: TA1535, Metabolic Activation: HAMSTER, LIVER, S-9, AROCLOR 1254 (30%), Method: PREINCUBATION): inactive; negative | mutagenic call (Test System: AMES SALMONELLA TYPHIMURIUM, Strain/Indicator: TA1535, Metabolic Activation: NONE, Method: PREINCUBATION): inactive; negative | mutagenic call (Test System: AMES SALMONELLA TYPHIMURIUM, Strain/Indicator: TA1535, Metabolic Activation: RAT, LIVER, S-9, AROCLOR 1254 (10 OR 30%), Method: PREINCUBATION): inactive; negative

O[C@@H]1C=CC=C[C@H]1O
mutagenic call (Test System: AMES SALMONELLA TYPHIMURIUM, Strain/Indicator: TA97, Metabolic Activation: NONE, Method: STANDARD PLATE): inactive; negative | mutagenic call [1]: inactive; negative | mutagenic call [2]: inactive; negative | mutagenic call [3]: inactive; negative | mutagenic call [4]: inactive; negative | mutagenic call [5]: active; positive | mutagenic call (Test System: CHINESE HAMSTER V-79, Strain/Indicator: V-79/6-THIOGUANINE, Metabolic Activation: NONE): inactive; negative

O=CC1=CCCC2CC12C=O (stereo unspecified)
mutagenic call [1]: active; positive | mutagenic call [3]: active; positive

c1ccc2c(c1)cc1c3c2ccc2cccc(c23)C2OC12 (stereo unspecified)
mutagenic call (Test System: AMES SALMONELLA TYPHIMURIUM, Strain/Indicator: TA98, Metabolic Activation: NONE, Method: HOST-MEDIATED): inactive; negative | mutagenic call [1]: active; positive | mutagenic call (Test System: AMES SALMONELLA TYPHIMURIUM, Strain/Indicator: TA98, Metabolic Activation: RAT, LIVER, S-9, KC500 OR PHENOBARBITAL, Method: LIQUID SUSPENSION): active; positive | mutagenic call (Test System: AMES SALMONELLA TYPHIMURIUM, Strain/Indicator: TA100, Metabolic Activation: MICROSOMAL EPOXIDE HYDROLASE, Method: PREINCUBATION): active; positive | mutagenic call (Test System: AMES SALMONELLA TYPHIMURIUM, Strain/Indicator: TA100, Metabolic Activation: NONE, Method: HOST-MEDIATED): inactive; negative | mutagenic call [8]: active; positive | mutagenic call [3]: active; positive | mutagenic call (Test System: AMES SALMONELLA TYPHIMURIUM, Strain/Indicator: TA100, Metabolic Activation: RAT, LIVER, S-9, KC500 OR PHENOBARBITAL, Method: LIQUID SUSPENSION): active; positive | mutagenic call [6]: active; positive | mutagenic call (Test System: AMES SALMONELLA TYPHIMURIUM, Strain/Indicator: TA1538, Metabolic Activation: NONE, Method: HOST-MEDIATED): inactive; negative | mutagenic call [7]: active; positive | mutagenic call (Test System: CHINESE HAMSTER V-79, Strain/Indicator: V-79/6-THIOGUANINE, Metabolic Activation: NONE, Method: REPLATING): active; positive | mutagenic call (Test System: CHINESE HAMSTER V-79, Strain/Indicator: V-79/6-THIOGUANINE, Metabolic Activation: NONE, Method: STANDARD PLATE): active; positive | mutagenic call (Test System: CHINESE HAMSTER V-79, Strain/Indicator: V-79/8-AZAGUANINE, Metabolic Activation: NONE, Method: STANDARD PLATE): active; positive | mutagenic call (Test System: CHINESE HAMSTER V-79, Strain/Indicator: V-79/OUABAIN, Metabolic Activation: NONE, Method: STANDARD PLATE): active; positive | mutagenic call (Test System: E. COLI, Strain/Indicator: WP2UVRA, Metabolic Activation: NONE, Method: STANDARD PLATE): active; positive | mutagenic call (Test System: UDS HUMAN CELLS, Strain/Indicator: THY INCORP (NON-S-PHASE), Metabolic Activation: NONE, Method: LIQUID SCINTILLATION COUNTING): active; positive
